ChEMBL document CHEMBL4190178 (Medchemcomm, 2016)
Calls of active or inactive are those of the source. No cut-off for these calls is given here.

Legend:
LNCaP [1] = experiment: Cytotoxicity against human LNCAP cells assessed as reduction in cell viability after 24 hrs by MTT assay; assay type: functional, cell-based
[2] = target: T1, Alpha-1A adrenergic receptor (Homo sapiens) (UniProt P35348); experiment: Antagonist activity at human alpha1A adrenergic receptor expressed in Chem1 cells assessed as decrease in epinephrine-induced calcium mobilization by measuring relative fluorescence unit at 1 uM by fluoforte dye based fluorescence assay relative to epinephrine; assay type: functional, cell-based
T1 sequence (whole entry): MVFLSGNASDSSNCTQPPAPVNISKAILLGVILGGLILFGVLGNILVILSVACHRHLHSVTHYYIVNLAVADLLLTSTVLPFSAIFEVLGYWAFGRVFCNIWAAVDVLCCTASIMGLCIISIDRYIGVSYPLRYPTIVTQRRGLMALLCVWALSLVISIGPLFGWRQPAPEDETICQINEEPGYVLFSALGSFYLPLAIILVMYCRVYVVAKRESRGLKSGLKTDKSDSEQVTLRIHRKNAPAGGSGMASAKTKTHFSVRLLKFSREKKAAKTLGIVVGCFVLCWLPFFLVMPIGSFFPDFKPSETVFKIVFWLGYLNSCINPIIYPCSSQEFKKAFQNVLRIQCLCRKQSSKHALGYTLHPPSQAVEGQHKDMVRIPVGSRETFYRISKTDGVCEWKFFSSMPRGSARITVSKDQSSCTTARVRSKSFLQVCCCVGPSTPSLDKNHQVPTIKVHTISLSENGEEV

[3] = target: T2, Androgen receptor (Homo sapiens) (UniProt P10275); experiment: Antagonist activity at androgen receptor in human LNCAP cells assessed as decrease in testosterone-induced PSA expression levels at 10 uM after 24 hrs by Western blot analysis; assay type: cell-based
T2 sequence (whole entry): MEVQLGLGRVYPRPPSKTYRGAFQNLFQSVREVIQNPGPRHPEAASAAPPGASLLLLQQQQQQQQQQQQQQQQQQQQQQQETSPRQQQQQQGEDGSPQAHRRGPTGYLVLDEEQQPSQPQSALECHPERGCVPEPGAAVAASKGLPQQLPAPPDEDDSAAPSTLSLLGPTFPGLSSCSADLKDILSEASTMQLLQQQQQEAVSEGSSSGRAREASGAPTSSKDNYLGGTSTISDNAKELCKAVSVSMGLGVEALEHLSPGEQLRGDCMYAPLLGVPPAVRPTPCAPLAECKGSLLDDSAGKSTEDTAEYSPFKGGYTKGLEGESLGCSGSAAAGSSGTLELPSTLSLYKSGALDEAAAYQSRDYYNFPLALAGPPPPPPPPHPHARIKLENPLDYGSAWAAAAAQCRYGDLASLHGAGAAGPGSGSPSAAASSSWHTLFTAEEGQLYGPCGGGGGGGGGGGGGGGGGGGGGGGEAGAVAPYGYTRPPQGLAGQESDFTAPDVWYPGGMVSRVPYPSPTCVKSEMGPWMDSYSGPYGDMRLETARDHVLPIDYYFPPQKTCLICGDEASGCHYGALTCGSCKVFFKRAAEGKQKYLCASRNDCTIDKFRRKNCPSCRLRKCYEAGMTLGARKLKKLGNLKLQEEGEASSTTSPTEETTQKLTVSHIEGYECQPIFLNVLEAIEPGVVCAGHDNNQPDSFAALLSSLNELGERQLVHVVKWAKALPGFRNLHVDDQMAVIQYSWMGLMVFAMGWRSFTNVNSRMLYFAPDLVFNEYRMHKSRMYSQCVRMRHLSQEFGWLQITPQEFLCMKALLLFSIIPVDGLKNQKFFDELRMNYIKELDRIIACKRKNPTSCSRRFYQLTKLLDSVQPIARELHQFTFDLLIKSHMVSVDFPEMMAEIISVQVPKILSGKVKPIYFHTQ

[4] = target: T2, Androgen receptor (Homo sapiens); experiment: Antagonist activity at human androgen receptor expressed in African green monkey COS7 cells at 7.5 uM after 24 hrs by ARE-dual luciferase reporter gene assay; assay type: cell-based
PC-3 = experiment: Antiproliferative activity against human PC3 cells assessed as decrease in cell viability after 24 hrs by MTT assay; assay type: functional, cell-based; details: PC-3, 24 h
DU-145 = experiment: Antiproliferative activity against human DU145 cells assessed as decrease in cell viability after 24 hrs by MTT assay; assay type: functional, cell-based; details: DU-145, 24 h
LNCaP [5] = experiment: Antiproliferative activity against human LNCAP cells assessed as decrease in cell viability after 24 hrs by MTT assay; assay type: functional, cell-based
[6] = target: T1, Alpha-1A adrenergic receptor (Homo sapiens); experiment: Antagonist activity at human alpha1A adrenergic receptor expressed in Chem1 cells assessed as decrease in epinephrine-induced calcium mobilization by measuring relative fluorescence unit at 10 uM by fluoforte dye based fluorescence assay relative to epinephrine; assay type: functional, cell-based
Rattus norvegicus [7] = experiment: Anti-androgenic activity in benign prostatic hyperplasia Sprague-Dawley rat model assessed as reduction in citral-induced prostate weight at 10 mg/kg, po qd co-administered with citral for 21 days starting post 8 days of citral alone treatment; assay type: functional; design: scale not given: the % may be the effect or the level left
Rattus norvegicus [8] = experiment: Toxicity in benign prostatic hyperplasia Sprague-Dawley rat model assessed as effect on seminal vesicle weight at 10 mg/kg, po qd co-administered with citral for 21 days starting post 8 days of citral alone treatment; assay type: organism-based; details: in vivo
Rattus norvegicus [9] = experiment: Toxicity in benign prostatic hyperplasia Sprague-Dawley rat model assessed as effect on testis weight at 10 mg/kg, po qd co-administered with citral for 21 days starting post 8 days of citral alone treatment; assay type: organism-based; details: in vivo
Rattus norvegicus [10] = experiment: Toxicity in benign prostatic hyperplasia Sprague-Dawley rat model assessed as effect on epididymis weight at 10 mg/kg, po qd co-administered with citral for 21 days starting post 8 days of citral alone treatment; assay type: organism-based; details: in vivo
Rattus norvegicus [11] = experiment: (§1) Anti-androgenic activity in citral-induced benign prostatic hyperplasia Sprague-Dawley rat model assessed as reduction in stromal component at 10 mg/kg, po qd co-administered with citral for 21 days starting post 8 days of citral alone treatment by hematoxyline and eosin staining based light microscopic analysis; assay type: functional, organism-based
Rattus norvegicus [12] = experiment: as §1, with “tissue differentiation into stroma” for “stromal component”; assay type: functional, organism-based
Rattus norvegicus [13] = experiment: as §1, with “tissue differentiation into acinar compartments” for “stromal component”; assay type: functional, organism-based

O=C(N1CCN(c2ccc([N+](=O)[O-])cc2)CC1)N1CCN(c2ccc([N+](=O)[O-])cc2)CC1
EC50 (LNCaP [1]): 72.3 µM

CCOc1ccccc1OCCN[C@H](C)Cc1ccc(OC)c(S(N)(=O)=O)c1
fold change (FC) [2]: 1.6

O=C(N1CCN(c2ccc([N+](=O)[O-])cc2)CC1)N1CCN(c2ccc(C(F)(F)F)cc2[N+](=O)[O-])CC1
EC50 (LNCaP [1]): > 80 µM

O=C(CCl)N1CCN(c2ccc([N+](=O)[O-])cc2C(F)(F)F)CC1
EC50 (LNCaP [1]): 53.3 µM

O=C(CCl)N1CCN(c2ncccn2)CC1
EC50 (LNCaP [1]): 71.3 µM

O=C(N1CCN(c2ccccn2)CC1)N1CCN(c2ccccn2)CC1
EC50 (LNCaP [1]): > 80 µM

COc1ccccc1N1CCN(CC(=O)N2CCN(c3ncccn3)CC2)CC1
EC50 (LNCaP [1]): 47.1 µM

COc1ccccc1N1CCN(C(=O)CN2CCN(c3ccc([N+](=O)[O-])cc3)CC2)CC1
EC50 (LNCaP [1]): 63.1 µM

COc1ccccc1N1CCN(C(=O)CN2CCN(c3ccccn3)CC2)CC1
EC50 (LNCaP [1]): 45.9 µM

COc1ccccc1N1CCN(CC(=O)N2CCN(c3ccccc3OC)CC2)CC1
EC50 (LNCaP [1]): 52.2 µM

O=C(N1CCN(c2ccccn2)CC1)N1CCN(c2ccc([N+](=O)[O-])cc2C(F)(F)F)CC1
EC50 (LNCaP [1]): > 80 µM

O=C(CCl)N1CCN(c2ccc([N+](=O)[O-])cc2)CC1
EC50 (LNCaP [1]): 9.8 µM | Activity [3]: Active | Activity [4]: Active | EC50 (PC-3): 65 µM | EC50 (DU-145): > 70.6 µM | EC50 (LNCaP [5]): 9.8 µM | fold change (FC) [6]: 1.6 | Activity (Rattus norvegicus [7]): 31.6 - 32% | Activity (Rattus norvegicus [8]): Non-Toxic | Activity (Rattus norvegicus [9]): Non-Toxic | Activity (Rattus norvegicus [10]): Non-Toxic | Activity (Rattus norvegicus [11]): Active | Activity (Rattus norvegicus [12]): Active | Activity (Rattus norvegicus [13]): Active

COc1ccccc1N1CCN(C(=O)CCl)CC1
EC50 (LNCaP [1]): 7.6 µM | Activity [3]: Active | EC50 (PC-3): > 80 µM | EC50 (DU-145): > 80 µM | EC50 (LNCaP [5]): 7.6 µM | fold change (FC) [6]: 1.6

O=C(N1CCN(c2ccc([N+](=O)[O-])cc2)CC1)N1CCN(c2ccc([N+](=O)[O-])cc2C(F)(F)F)CC1
EC50 (LNCaP [1]): 76.1 µM
